“Also recorded” adds a separate entry of the source. Where two headings read alike, the source gives them in different places. No end group written: not given here.
What was measured:
Clauss fibrinogen assay = conditions: concentrations>5.6 μM
[1] = global coagulation screening tests (haemostasis in vitro)
platelet function = platelet function screening test
human plasmin = human plasmin (Homo sapiens, UniProt P00747); assay: plasmin inhibition (Ki); format: biochemical
[2] = tested on: plasmin-activated MMP-9 activity; assay: BIOTRAK assay kit, MMP-9 activity in HL60 conditioned media; format: cell-based; conditions: 1 μM, HL60, two days of culture
Experimental: In addition to gelatin zymography, we evaluated the plasmin inhibitors using the BIOTRAK® assay kit. HL60 were seeded at 4×10^5 cells/well (24 wells plate) in a serum free medium (UltraCulture medium). The day after, different conditions were evaluated: samples with and without activators of pro-MMP9 (Plasmin and pro-MMP-3) and samples with and without DX-1000 and 4-PEG-DX-1000 (1 μM). After two days of culture, conditioned media were collected an activity of MMP-9 was assessed using the BIOTRAK® assay kit. Assay time was approximately one hour under standard conditions. At a 1 μM concentration, DX-1000 and 4-PEG DX-1000 effected an approximately 68-70% reduction in plasmin-activated MMP-9 activity.

[3] = Pharmacokinetics of iodinated protein in normal mice; format: in vivo; conditions: tail vein injection
Experimental: (§1) Labeling: we used […] protein and the Iodogen (Pierce) method, ˜1.7 mCi. Purification: we used D-salt polyacrylamide column and collected fractions, with total recovery ˜90%. We pooled high yield fractions for injections. Mice: we injected […] via tail vein. One time point/animal; four animals/time point. We used the following time points: no PEG at 0, 7, 15, 30, and 90 min. PEG at 0, 7, 15, 30, and 90 min, 4, 8, 16, and 24 hrs. We analyzed total plasma counts, used HPLC on Superose 12 (stability), and analyzed biodistribution. Rabbits: we injected 80 mg/animal via left ear vein. Blood was drawn from the right ear at following time points: no PEG at 0, 7, 15, 30, 90 min, 4, 8, 16, 24, 48, 72, and 96 hrs. PEG at 0, 7, 15, 30, 90 min, 4, 8, 16, 24, 48, 72, 96, 120, 144, 168, and 192 hrs. We preformed the following analyses: total plasma counts and HPLC on Superose 12 (stability) at 48, 72, 96, 120, 144, 168, and 192 hrs.

SW-480 cells = assay: Apoptosis (caspase 3/7 activity, FACS), SW-480; format: cell-based, human; conditions: also FACS assay
Experimental: (§2) Apoptosis was evaluated using an assay for detecting caspase 3/7 activity using caspase 3/7 substrate. Apoptosis was also not detected using a FACS assay.

HUVECs = assay: Tube formation assay, HUVECs on collagen type I; format: cell-based, human; conditions: for IC50: total tube length, 16-18 hours, read-out: IC50 tube formation, HUVEC
Experimental: (§3) Tube formation assay: HUVECs were cultured on gelatin-coated culture dishes in RPMI medium. The cells (passage 2) were seeded at 8e4/well of a 96-well plate on collagen type I (1.5 mg/ml, SERVA) in their culture medium (EGM-2 complete medium supplemented with 10% FCS) and allowed to spread for 1 hour. The culture medium was then discarded and the cells were covered with a new layer of collagen type I (1.5 mg/ml, new preparation). […] Mouse endothelial cells (EC) (LEII cell line) were seeded at 2e4/well of a 96-well plate on GFR-Matrigel (BD) in their culture medium (IMDM supplemented with 10% FCS) in presence of a dose range of DX-1000 and incubated at 37° C./5% CO2 for 5 hours. Endothelial tube formation was assessed with an inverted photomicroscope (Analis). Microphotographs of the center of each well at low power (40×) were taken with a NIKON camera with the aid of imaging-capture software (NIKON). Tube formation in the microphotographs was quantitatively analyzed (total tube length) with METAVUE™ software (Universal Imaging Corporation). Tube formation by untreated HUVECs in full endothelial cell growth medium was used as a control. IC50 values were determined with SIGMAPLOT™.

endothelial cells = assay: in vitro endothelial tubulogenesis (tube formation) assay, cell type not specified; format: cell-based; conditions: for inhibition of tubulogenesis / angiogenesis in vitro: qualitative
Experimental: as §3
DX-1000 was also tested for its activity in an in vitro endothelial tubulogenesis assay (“tube formation assay” described in Methods.). […]

clot lysis = assay: clot lysis
prothrombin time (PT) = conditions: concentrations>5.6 μM
SW480 cells = assay: Soft agar colony formation; format: cell-based, human; conditions: 0.1 to 50 μM
Experimental: We also evaluated DX-1000 in an assay to measure the sensitivity of human tumors to drugs before progressing to in vivo studies. SW-480 cells are grown in vitro in soft agar, reducing cell movement and allowing individual cells to develop into cell clones that are identified as single colonies. 3,000 SW480 cells were seeded into each well of six well plates. Each treatment was run in triplicate. Five 4× images were taken from each well for quantification using the […]® software.

fibrinolysis = assay: Thrombelastography (TEG); conditions: 280-560 nM DX-1000
HL-60 cells = assay: Apoptosis (caspase 3/7 activity, FACS), HL-60; format: cell-based; conditions: also FACS assay
Experimental: as §2

HT-1080 cells [4] = assay: Chemo-invasion through Matrigel, HT-1080 cells; format: cell-based
Experimental: (§4) Cell culture of tumor cell lines: HT-1080 (fibrosarcoma), and LNCaP (androgen-dependent prostate cancer) cell lines were grown to 80% confluence in Dulbecco's modified Eagle medium (DMEM) supplemented with 10% FCS, glutamine ([…]), sodium bicarbonate (2.1 g/l), ascorbic acid ([…]) and penicillin-streptomycin (P/S) (100 U/ml). LNCaP cells were stimulated with di-hydro-testosterone (DHT, 10 nM). Non-adherent HL-60 (acute myeloid leukemia) cell line was grown in RPMI medium supplemented with 20% FCS, glutamine 4 mM, sodium bicarbonate (1.5 g/l) and P/S (100 U/ml). Cultures were maintained at a cell concentration between 1e5 and 1e6/ml.
(§5) Chemo-invasion: HT-1080 and LNCaP cells were seeded at 10^6/well in 24-well cluster plates and incubated overnight. They were then incubated in the presence of a dose range of DX-1000 for 24 hours. […] Chemo-invasion was assessed using Transwell cell culture chamber inserts (Becton Dickinson) with Growth Factor Reduced-[…]® (GFR-[…]®) coated filters. After trypsinization, cells were seeded in the upper part of the invasion chamber (1e4/insert). RPMI medium supplemented with 5% FCS and 1% BSA and NIH3T3 CM used as chemoattractants for HT-1080 and LNCaP cells, respectively. After 24 hours of incubation at 37° C., filters were removed from the chambers, stained, and the % of invading cells was evaluated. Each condition was performed in duplicate.

LNCaP cells = assay: Chemo-invasion through Matrigel, LNCaP cells (DHT-stimulated); format: cell-based
Experimental: as §4, §5

[5] = tested on: Mouse endothelial cells (EC) (LEII cell line); assay: Tube formation assay, mouse endothelial cells (LEII) on GFR-Matrigel; format: cell-based; conditions: for IC50: total tube length, 5 hours
Experimental: as §3

[6] = Pharmacokinetics of iodinated protein in rabbits; format: in vivo; conditions: rabbit, ear vein injection
Experimental: as §1

[7] = tested on: plasmin-mediated pro-MMP-9 activation in HL-60 cells; assay: Gelatin zymography of HL-60 conditioned media; format: cell-based; conditions: for inhibition of plasmin-mediated pro-MMP-9 activation: HL-60 cells, gelatin zymography, 1 μM, 48 hours
Experimental: as §4
Gelatin zymography: HL-60 cells were cultured in serum-free medium (Ultraculture medium). Different conditions were considered: with and w/o DX-1000 at 1 μM; with or without pro-MMP-9 activators (plasmin+pro-MMP-3). Cells were cultured at 37° C./5% CO2 for 48 hours. Aliquots of conditioned media (CM) were then collected, clarified by centrifugation, mixed with electrophoresis sample buffer without reducing agent, and applied to 10% acrylamide gels containing gelatin (1 mg/ml). Active recombinant gelatinases served as standard. Samples were resolved at 20 mA, washed in 2% Triton X-100 for 1 hour and incubated at 37° C. for 16 hours in activation buffer containing 50 mM Tris-HCl, pH 7.4, 0.2 M NaCl, 5 mM CaCl2. After staining with Coomassie brilliant blue R-250, the gelatinolytic activities were detected as clear bands against the blue background.

[8] = activated partial thromboplastin time (APTT)
HT-1080 cells [9] = assay: Cell migration: scraping assay and Boyden chamber assay without Matrigel; format: cell-based; conditions: 1-10 μM in scraping assay
Experimental: Scraping assay: HT-1080 cells were seeded at 2e6/well in 6-well plates in complete medium. […] Cell layers were then scraped with a plastic tip.
The effect of DX-1000 on cell migration was evaluated using two different assays, the scraping assay and a Boyden chamber assay without Matrigel.

[10] = Allometric extrapolation of stability to humans; conditions: allometric extrapolations from mouse and rabbit
Source text: By allometric extrapolations, we should expect a stability of 9 days in humans.

[11] = DX-1000 1-10 nM, Matrigel or collagen type I

human plasmin, sequence (P00747 581-810 limits assumed): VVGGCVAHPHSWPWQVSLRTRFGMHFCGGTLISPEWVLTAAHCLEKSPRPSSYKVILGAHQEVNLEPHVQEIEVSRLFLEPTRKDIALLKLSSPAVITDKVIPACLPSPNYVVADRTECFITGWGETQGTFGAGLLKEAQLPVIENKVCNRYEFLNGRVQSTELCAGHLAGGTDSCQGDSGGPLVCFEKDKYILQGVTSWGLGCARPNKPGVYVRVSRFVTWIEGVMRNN
human plasmin, sequence (P00747 97-580 partner limits assumed): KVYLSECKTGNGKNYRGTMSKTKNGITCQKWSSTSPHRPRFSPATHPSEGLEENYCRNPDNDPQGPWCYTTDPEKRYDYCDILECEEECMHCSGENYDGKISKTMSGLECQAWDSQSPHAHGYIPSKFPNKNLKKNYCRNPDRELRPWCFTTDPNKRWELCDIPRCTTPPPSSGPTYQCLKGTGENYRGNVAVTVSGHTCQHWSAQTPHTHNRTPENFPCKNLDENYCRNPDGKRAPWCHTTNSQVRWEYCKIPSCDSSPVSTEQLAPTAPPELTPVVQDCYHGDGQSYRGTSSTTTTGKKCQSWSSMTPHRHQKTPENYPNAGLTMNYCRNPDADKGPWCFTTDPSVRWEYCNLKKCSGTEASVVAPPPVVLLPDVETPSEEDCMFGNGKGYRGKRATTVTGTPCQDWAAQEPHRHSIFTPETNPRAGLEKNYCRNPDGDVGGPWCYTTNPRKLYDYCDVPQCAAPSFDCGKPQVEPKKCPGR

Substance: DX-1000: Kunitz domain that inhibits human plasmin; framework region of human LACI; SEQ ID NO:22 or 23 (MHSFCAFKAETGPCRARFDRWFFNIFTRQCEEFIYGGCEGNQNRFESLEECKKMCTRD)
- effect on Clauss fibrinogen assays (Clauss fibrinogen assay): did not observe an effect
- effects in global coagulation screening tests / haemostasis in vitro [1]: did not significantly influence haemostasis in vitro; also recorded: did not detect any clinically significant effects; also recorded: no clinically significant effects
- effects in platelet function screening test (platelet function): no clinically significant effects
- Ki (human plasmin): 0.088 nM
- reduction in plasmin-activated MMP-9 activity [2]: 68-70%
- half-life [3]: 0.45 h
- induction of apoptosis in SW-480 cells (SW-480 cells): do not induce apoptosis
- tube formation of human endothelial cells (HUVECs; [11]): efficiently blocked tube formation
- IC50 (HUVECs; listed as DX-1000 (unmodified)): 1.39 nM
- efficiency at inhibiting tube formation compared with aprotinin (endothelial cells): at least as efficient as aprotinin
- inhibition of tubulogenesis / angiogenesis in vitro (endothelial cells): decreased in vitro angiogenesis; also recorded: potent inhibitor of tubulogenesis in vitro
- concentration at which inhibition of clot lysis was observed (clot lysis): > 700 nM
- effect on prothrombin time (PT) (prothrombin time (PT)): did not observe an effect
- colony formation by SW480 cells (SW480 cells): did not inhibit colony formation
- fibrinolysis in thrombelastography (TEG) (fibrinolysis; two subjects with upper normal values): inhibition of fibrinolysis
- fibrinolysis in TEG with tPA (fibrinolysis; tPA): reduction in fibrinolysis
- induction of apoptosis in HL-60 cells (HL-60 cells): do not induce apoptosis
- concentrations effective at inhibiting invasion in vitro (HT-1080) (HT-1080 cells [4]): effective at nanomolar and sub-nanomolar concentrations
- in vitro invasiveness of tumor cells (HT-1080) (HT-1080 cells [4]): decreased in vitro invasiveness of tumor cells; also recorded: decreases the in vitro invasiveness of tumor cells
- potency in invasion assay compared with aprotinin (HT-1080) (HT-1080 cells [4]): more potent inhibitor than aprotinin
- inhibition of invasion of HT-1080 through Matrigel (HT-1080 cells [4]; DX-1000 1 nM): inhibited
- concentrations effective at inhibiting invasion in vitro (LNCaP) (LNCaP cells): effective at nanomolar and sub-nanomolar concentrations
- in vitro invasiveness of tumor cells (LNCaP) (LNCaP cells): decreased in vitro invasiveness of tumor cells; also recorded: decreases the in vitro invasiveness of tumor cells
- potency in invasion assay compared with aprotinin (LNCaP) (LNCaP cells): more potent inhibitor than aprotinin
- inhibition of DHT-stimulated invasion of LNCaPs through Matrigel (LNCaP cells; DX-1000 1 nM): inhibited
- tube formation of mouse endothelial cells [5, 11]: efficiently blocked tube formation
- IC50 [5]: 16.6 nM
- half-life [6]: about 1 h
- inhibition of plasmin-mediated pro-MMP-9 activation [7]: 64%
- MMP (gelatinase) expression and activation ([7]; qualitative): inhibited plasmin-mediated MMP activation; also recorded: down-regulates MMP expression and activation; also recorded: down-regulated efficiently the expression and activation of gelatinases
- APTT clotting times versus normal range ([8]; 1.4-5.6 μM): remained within the normal range
- effect on activated partial thromboplastin time (APTT) ([8]; higher doses (1.4-5.6 μM)): weak dose-dependent effect
- two-dimensional migration of HT-1080 cells in vitro (HT-1080 cells [9]): did not inhibit migration; also recorded: does not inhibit

Substance: 4-PEG DX-1000: exemplary modified DX-1000 molecule that includes four PEG moieties (MHSFCAFKAETGPCRARFDRWFFNIFTRQCEEFIYGGCEGNQNRFESLEECKKMCTRD; cysteine pairing not given here; also: four PEG moieties, places not given here)
- reduction in plasmin-activated MMP-9 activity [2]: 68-70%
- half-life [3]: 13 h
- induction of apoptosis in SW-480 cells (SW-480 cells): do not induce apoptosis
- IC50 (HUVECs): 8.3 nM
- inhibition of tubulogenesis / angiogenesis in vitro (endothelial cells): also inhibited tube formation
- IC50 (endothelial cells; read-out: IC50 tube formation, cell type not given): 0.98 ± 1.25 nM
- colony formation by SW480 cells (SW480 cells): did not inhibit colony formation
- induction of apoptosis in HL-60 cells (HL-60 cells): do not induce apoptosis
- IC50 [5]: 15.8 nM
- half-life [6]: 59 h
- inhibition of plasmin-mediated pro-MMP-9 activation [7]: 92%
- expected stability in humans [10]: 9 days

— US20100286061A1, “PLASMIN-INHIBITORY THERAPIES” (priority 2004, published 2010)
